Measurements reported in US20240182445A1 (ONO PHARMACEUTICAL CO., LTD., priority 2019, published 2024).

Target: T1, human TREK-1 (Homo sapiens, UniProt O95069)
T1 construct: expressed in transfected cells
T1 sequence (O95069 1-426): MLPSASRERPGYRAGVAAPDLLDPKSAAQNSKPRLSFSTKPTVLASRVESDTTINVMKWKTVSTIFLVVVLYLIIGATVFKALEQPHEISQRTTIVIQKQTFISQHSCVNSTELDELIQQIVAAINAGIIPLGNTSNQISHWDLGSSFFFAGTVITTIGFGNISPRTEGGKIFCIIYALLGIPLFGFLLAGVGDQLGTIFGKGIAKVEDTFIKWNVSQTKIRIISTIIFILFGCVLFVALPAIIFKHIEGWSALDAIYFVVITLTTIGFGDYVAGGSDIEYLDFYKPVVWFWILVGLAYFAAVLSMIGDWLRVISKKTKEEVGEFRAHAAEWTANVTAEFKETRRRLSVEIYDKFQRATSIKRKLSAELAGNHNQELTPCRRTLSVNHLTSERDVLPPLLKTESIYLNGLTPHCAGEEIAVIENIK
Assay: TREK-1 Thallium (Tl+) flux assay, Method 1
Assay type: cell-based
Conditions: TREK-1 Thallium (Tl+) flux assay, Method 1
In short: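 Readout: Thallos fluorescence ratio, taken 25 s post-thallium relative to the pre-thallium baseline average, then converted to % inhibition. Cells were CHO-K1 stably expressing human TREK-1, dye-loaded and exposed to test compound (vehicle 0.3% DMSO) for 10 min prior to thallium stimulation.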

Row | IC50 | SMILES
1 | 6.89 µM | CC(=O)N1CC2(CC(n3ncc(Cl)c3C(=O)Nc3ccc(OCc4ccccc4)cc3C)C2)C1 [Compound 433, 1-(2-acetyl-2-azaspiro[3.3]heptan-6-yl)-N-(4-(benzyloxy)-2-methylphenyl)-4-chloro-1H-pyrazole-5-carboxamide]
2 | 1.76 µM | CC(=O)N[C@H]1CC[C@@H](n2ncc(Cl)c2C(=O)Nc2ccc(OCc3ccccc3)cc2C)CC1 [Compound 399, 1-(cis-4-acetamidocyclohexyl)-N-(4-(benzyloxy)-2-methylphenyl)-4-chloro-1H-pyrazole-5-carboxamide]
3 | 1.74 µM | Cc1cc(OCc2ccccc2)ccc1NC(=O)c1c(Cl)cnn1C1CC2(C1)CN(C(=O)C(C)C)C2 [Compound 398, N-(4-(benzyloxy)-2-methylphenyl)-4-chloro-1-(2-isobutyryl-2-azaspiro[3.3]heptan-6-yl)-1H-pyrazole-5-carboxamide]
4 | 2.3 µM | Cc1cc(OCc2ccccc2)ccc1NC(=O)c1c(Cl)cnn1[C@H]1CC[C@@H](NC(=O)OC(C)(C)C)CC1 [Compound 404, tert-butyl (cis-4-(5-((4-(benzyloxy)-2-methylphenyl)carbamoyl)-4-chloro-1H-pyrazol-1-yl)cyclohexyl)carbamate]

Same assay, conditions: TREK-1 Thallium (Tl+) flux assay; no *^12 (Method 2) mark on these rows

Row | SMILES | IC50
5 | Cc1cc(C#Cc2ccccc2)cnc1NC(=O)c1c(Cl)cnn1[C@H]1C[C@H](NC(=O)OC(C)(C)C)C1 [Compound 292, tert-butyl (trans-3-(4-chloro-5-((3-methyl-5-(phenylethynyl)pyridin-2-yl)carbamoyl)-1H-pyrazol-1-yl)cyclobutyl)carbamate] | 0.52 µM
6 | Cc1cc(C#Cc2ccc(F)cc2)cnc1NC(=O)c1c(Cl)cnn1C1CC2(CCN(C(=O)C3COCCO3)C2)C1 (stereo not shown) [Compound 310, 4-chloro-1-[6-(1,4-dioxane-2-carbonyl)-6-azaspiro[3.4]octan-2-yl]-N-{5-[(4-fluorophenyl)ethynyl]-3-methylpyridin-2-yl}-1H-pyrazole-5-carboxamide] | 0.58 µM
7 | Cc1cc(C#Cc2ccccc2)cnc1NC(=O)c1c(Cl)cnn1[C@H]1C[C@@H](NC(=O)C(C)C)C1 [Compound 207, 4-chloro-1-(cis-3-isobutyramidocyclobutyl)-N-(3-methyl-5-(phenylethynyl)pyridin-2-yl)-1H-pyrazole-5-carboxamide] | 0.31 µM
8 | Cc1cc(C#Cc2ccccc2)cnc1NC(=O)c1c(Cl)cnn1CC1CN(C(=O)C2CC2)C1 [Compound 274, 4-chloro-1-((1-(cyclopropanecarbonyl)azetidin-3-yl)methyl)-N-(3-methyl-5-(phenylethynyl)pyridin-2-yl)-1H-pyrazole-5-carboxamide] | 0.47 µM
9 | Cc1cc(C#Cc2ccccc2)cnc1NC(=O)c1c(Cl)cnn1C[C@H]1COCCO1 [Compound 211, (S)-1-((1,4-dioxan-2-yl)methyl)-4-chloro-N-(3-methyl-5-(phenylethynyl)pyridin-2-yl)-1H-pyrazole-5-carboxamide] | 0.32 µM
10 | CC(C)(C)OC(=O)N1CCC(n2ncc(Cl)c2C(=O)Nc2c(F)cc(C#Cc3ccccc3)cc2F)C1 (stereo not shown) [Compound 297, tert-butyl 3-(4-chloro-5-((2,6-difluoro-4-(phenyethynyl)phenyl)carbamoyl)-1H-pyrazol-1-yl)pyrroldine-1-carboxylate] | 0.54 µM
11 | CC(C)C(=O)N1CCC[C@H](Cn2ncc(Cl)c2C(=O)Nc2ncc(C#Cc3ccccc3)cc2F)C1 [Compound 288, (S)-4-chloro-N-(3-fluoro-5-(phenylethynyl)pyridin-2-yl)-1-((1-isobutyrylpiperidin-3-yl)methyl)-1H-pyrazole-5-carboxamide] | 0.5 µM

Other lines, results leading:

Row | IC50 | SMILES
12 | 0.63 µM | Cc1cc(C#Cc2ccccc2)cnc1NC(=O)c1c(Cl)cnn1CCN1CCN(C(=O)OC(C)(C)C)CC1 [Compound 323, tert-butyl 4-(2-(4-chloro-5-((3-methyl-5-(phenylethynyl)pyridin-2-yl)carbamoyl)-1H-pyrazol-1-yl)ethyl)piperazine-1-carboxylate]
13 | 0.63 µM | Cc1cc(C#Cc2ccccc2)cnc1NC(=O)c1c(Cl)cnn1CCC1CCCO1 (stereo not shown) [Compound 321, 4-chloro-N-(3-methyl-5-(phenylethynyl)pyridin-2-yl)-1-(2-(tetrahydrofuran-2-yl)ethyl)-1H-pyrazole-5-carboxamide]
14 | 0.94 µM | Cc1cc(C#Cc2ccc(F)cc2)cnc1NC(=O)c1c(Cl)cnn1C[C@H]1CCCN(C(=O)OC(C)(C)C)C1 [Compound 368, tert-butyl (S)-3-((4-chloro-5-((5-((4-fluorophenyl)ethynyl)-3-methylpyridin-2-yl)carbamoyl)-1H-pyrazol-1-yl)methyl)piperidine-1-carboxylate]
15 | 0.65 µM | Cc1cc(C#Cc2ccccc2)cnc1NC(=O)c1c(Cl)cnn1C1CCN(C(=O)OC(C)(C)C)CC1 [Compound 328]
16 | 0.77 µM | Cc1cc(C#Cc2ccccc2)cnc1NC(=O)c1c(Cl)cnn1CC1CCCO1 (stereo not shown) [Compound 345, 4-chloro-N-(3-methyl-5-(phenylethynyl)pyridin-2-yl)-1-((tetrahydrofuran-2-yl)methyl)-1H-pyrazole-5-carboxamide]

Same assay, conditions: TREK-1 Thallium (Tl+) flux assay; values without footnote *12 are Method 1

Row | IC50 | SMILES
17 | 0.17 µM | CC(=O)N1CC[C@@H](Cn2ncc(Cl)c2C(=O)Nc2ncc(C#Cc3ccccc3)cc2F)[C@@H](F)C1 [Compound 88, 1-(((3R,4S)-1-acetyl-3-fluoropiperidin-4-yl)methyl)-4-chloro-N-(3-fluoro-5-(phenylethynyl)pyridin-2-yl)-1H-pyrazole-5-carboxamide]
18 | 0.14 µM | Cc1cc(C#Cc2ccccc2)cnc1NC(=O)c1c(Cl)cnn1CC1CCN(C(=O)C(C)C)CC1 [Compound 53, 4-chloro-1-((1-isobutyrylpiperidin-4-yl)methyl)-N-(3-methyl-5-(phenylethnyl)pyridin-2-yl)-1H-pyrazole-5-carboxamide]
19 | 0.23 µM | N#CC1(Cn2ncc(Cl)c2C(=O)Nc2ncc(C#Cc3ccccc3)cc2F)CC1 [Compound 141, 4-chloro-1-((1-cyanocyclopropyl)methyl)-N-(3-fluoro-5-(phenylethynyl)pyridin-2-yl)-1H-pyrazole-5-carboxamide]
20 | 0.19 µM | CC(=O)N1CC[C@@H](Cn2ncc(Cl)c2C(=O)Nc2ncc(C#Cc3ccccc3)cc2C)[C@@H](F)C1 [Compound 109, 1-(((3R,4S)-1-acetyl-3-fluoropiperidin-4-yl)methyl)-4-chloro-N-(3-methyl-5-(phenylethynyl)pyridin-2-yl)-1H-pyrazole-5-carboxamide]
21 | 0.11 µM | CCC(=O)N1CCC(n2ncc(Cl)c2C(=O)Nc2ncc(C#Cc3ccccc3)cc2F)CC1 [Compound 34, 4-chloro-N-(3-fluoro-5-(phenylethynyl)pyridin-2-yl)-1-(1-propionylpiperidin-4-yl)-1H-pyrazole-5-carboxamide]
22 | 0.19 µM | CC(=O)N1CCOC(Cn2ncc(Cl)c2C(=O)Nc2ncc(C#Cc3ccccc3)cc2C)C1 (stereo not shown) [Compound 105, 1-((4-acetylmorpholin-2-yl)methyl)-4-chloro-N-(3-methyl-5-(phenylethynyl)pyridin-2-yl)-1H-pyrazole-5-carboxamide]
23 | 0.21 µM | Cc1cc(C#Cc2ccccc2)cnc1NC(=O)c1c(Cl)cnn1CC1(C#N)CCN(C(=O)OC(C)(C)C)CC1 [Compound 126, tert-butyl 4-((4-chloro-5-((3-methyl-5-(phenylethynyl)pyridin-2-yl)carbamoyl)-1H-pyrazol-1-yl)methyl)-4-cyanopiperidine-1-carboxylate]
24 | 0.29 µM | Cc1cc(C#Cc2ccccc2)cnc1NC(=O)c1c(Cl)cnn1CCC1CCN(C(=O)C(C)C)CC1 [Compound 188, 4-chloro-1-(2-(1-isobutyrylpiperidin-4-yl)ethyl)-N-(3-methyl-5-(phenylethynyl)pyridin-2-yl)-1H-pyrazole-5-carboxamide]
25 | 0.2 µM | CC(=O)N1CC[C@H](n2ncc(Cl)c2C(=O)Nc2ncc(C#Cc3ccccc3)cc2C)C[C@@H]1C (single isomer, unassigned) [Compound 114, 1-[(2S,4S)-1-acetyl-2-methylpiperidin-4-yl]-4-chloro-N-[3-methyl-5-(phenylethynyl)pyridin-2-yl]-1H-pyrazole-5-carboxamide or 1-[(2R,4R)-1-acetyl-2-methylpiperidin-4-yl]-4-chloro-N-[3-methyl-5-(phenylethynyl)pyridin-2-yl]-1H-pyrazole-5-carboxamide]
26 | 0.27 µM | Cc1cc(C#Cc2ccccc2)cnc1NC(=O)c1c(Cl)cnn1C1CCN(C(=O)CC(F)(F)F)CC1 [Compound 171, 4-chloro-N-(3-methyl-5-(phenylethynyl)pyridin-2-yl)-1-(1-(3,3,3-trifluoropropanoyl)piperidin-4-yl)-1H-pyrazole-5-carboxamide]
27 | 0.18 µM | Cc1cc(C#Cc2ccc(F)cc2)cnc1NC(=O)c1c(Cl)cnn1CCN1CCN(C(=O)C2CC2)CC1 [Compound 96, 4-chloro-1-(2-(4-(cyclopropanecarbonyl)piperazin-1-yl)ethyl)-N-(5-((4-fluorophenyl)ethynyl)-3-methylpyridin-2-yl)-1H-pyrazole-5-carboxamide]
28 | 0.21 µM | CC(=O)N1CC(n2ncc(Cl)c2C(=O)Nc2ncc(C#Cc3ccccc3)cc2C)C1 [Compound 122, 1-(1-acetylazetidin-3-yl)-4-chloro-N-(3-methyl-5-(phenylethynyl)pyridin-2-yl)-1H-pyrazole-5-carboxamide]
